Publication PMC7026418, “The kinase polypharmacology landscape of clinical PARP inhibitors” (Scientific Reports, 2020)
Like-named read-outs stand apart in the source and are kept apart here. Blank lines part the entries; values can stand above or below the compound they belong to.

What was measured:
Test in all cases: biochemical
Set-up in all cases: DiscoveRx KINOMEscan active site-directed competition binding; percent of control kinase bound to immobilised ligand
CAMK2A = CAMK2A (Homo sapiens, UniProt Q9UQM7)
CSNK1D = CSNK1D (Homo sapiens, UniProt P48730)
DDR2 = biological target: T1, DDR2 (Homo sapiens, UniProt Q16832)
T1 sequence (Q16832 1-855): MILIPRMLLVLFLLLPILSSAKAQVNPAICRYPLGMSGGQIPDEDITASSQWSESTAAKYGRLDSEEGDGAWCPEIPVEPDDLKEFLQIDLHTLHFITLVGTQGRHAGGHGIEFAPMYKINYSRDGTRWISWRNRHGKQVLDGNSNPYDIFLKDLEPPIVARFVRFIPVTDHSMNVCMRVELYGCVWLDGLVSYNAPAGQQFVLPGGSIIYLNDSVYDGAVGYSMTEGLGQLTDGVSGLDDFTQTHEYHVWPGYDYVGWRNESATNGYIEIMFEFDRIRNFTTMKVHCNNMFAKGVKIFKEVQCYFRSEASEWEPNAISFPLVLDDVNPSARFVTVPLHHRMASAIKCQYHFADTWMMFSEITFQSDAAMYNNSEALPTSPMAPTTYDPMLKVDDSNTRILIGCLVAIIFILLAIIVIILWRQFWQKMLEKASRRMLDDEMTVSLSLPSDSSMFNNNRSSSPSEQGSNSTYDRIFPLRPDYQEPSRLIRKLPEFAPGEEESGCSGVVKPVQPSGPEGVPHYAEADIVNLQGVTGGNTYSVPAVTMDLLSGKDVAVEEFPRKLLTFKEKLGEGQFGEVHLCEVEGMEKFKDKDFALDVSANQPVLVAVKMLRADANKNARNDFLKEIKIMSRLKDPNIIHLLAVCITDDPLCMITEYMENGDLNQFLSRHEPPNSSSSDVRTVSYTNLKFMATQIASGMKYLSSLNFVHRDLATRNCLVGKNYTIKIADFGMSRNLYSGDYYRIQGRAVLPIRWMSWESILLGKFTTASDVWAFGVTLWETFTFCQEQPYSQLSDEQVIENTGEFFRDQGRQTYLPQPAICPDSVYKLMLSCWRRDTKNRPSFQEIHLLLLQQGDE

ERBB4 = ERBB4 (Homo sapiens, UniProt Q15303)
NIK = biological target: T2, NIK (Homo sapiens, UniProt Q99558)
T2 construct: gene MAP3K14

PIK3C2B = PIK3C2B (Homo sapiens, UniProt O00750)
RIPK1 = biological target: T3, RIPK1 (Homo sapiens, UniProt Q13546)
T3 sequence (Q13546 1-671): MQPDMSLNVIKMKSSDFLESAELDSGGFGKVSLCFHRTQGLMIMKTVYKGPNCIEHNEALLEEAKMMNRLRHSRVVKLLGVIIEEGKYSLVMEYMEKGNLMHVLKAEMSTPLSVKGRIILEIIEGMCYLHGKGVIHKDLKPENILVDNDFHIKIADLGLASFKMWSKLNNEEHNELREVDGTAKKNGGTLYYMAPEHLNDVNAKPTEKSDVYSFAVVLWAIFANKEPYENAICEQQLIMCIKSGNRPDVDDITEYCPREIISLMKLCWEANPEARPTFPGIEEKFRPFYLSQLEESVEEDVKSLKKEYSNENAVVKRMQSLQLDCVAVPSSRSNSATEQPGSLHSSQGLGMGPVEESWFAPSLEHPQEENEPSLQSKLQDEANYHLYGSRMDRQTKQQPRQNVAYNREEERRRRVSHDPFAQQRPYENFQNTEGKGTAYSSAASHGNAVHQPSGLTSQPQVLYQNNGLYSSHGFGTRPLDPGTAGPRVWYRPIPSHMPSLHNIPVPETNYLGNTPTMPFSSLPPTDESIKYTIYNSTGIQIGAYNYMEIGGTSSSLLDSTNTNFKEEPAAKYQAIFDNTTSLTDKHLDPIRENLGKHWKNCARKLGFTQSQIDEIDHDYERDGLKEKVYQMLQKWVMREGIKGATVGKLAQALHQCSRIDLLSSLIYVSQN

TNK1 = biological target: T4, TNK1 (Homo sapiens, UniProt Q13470)
T4 sequence (Q13470 1-666): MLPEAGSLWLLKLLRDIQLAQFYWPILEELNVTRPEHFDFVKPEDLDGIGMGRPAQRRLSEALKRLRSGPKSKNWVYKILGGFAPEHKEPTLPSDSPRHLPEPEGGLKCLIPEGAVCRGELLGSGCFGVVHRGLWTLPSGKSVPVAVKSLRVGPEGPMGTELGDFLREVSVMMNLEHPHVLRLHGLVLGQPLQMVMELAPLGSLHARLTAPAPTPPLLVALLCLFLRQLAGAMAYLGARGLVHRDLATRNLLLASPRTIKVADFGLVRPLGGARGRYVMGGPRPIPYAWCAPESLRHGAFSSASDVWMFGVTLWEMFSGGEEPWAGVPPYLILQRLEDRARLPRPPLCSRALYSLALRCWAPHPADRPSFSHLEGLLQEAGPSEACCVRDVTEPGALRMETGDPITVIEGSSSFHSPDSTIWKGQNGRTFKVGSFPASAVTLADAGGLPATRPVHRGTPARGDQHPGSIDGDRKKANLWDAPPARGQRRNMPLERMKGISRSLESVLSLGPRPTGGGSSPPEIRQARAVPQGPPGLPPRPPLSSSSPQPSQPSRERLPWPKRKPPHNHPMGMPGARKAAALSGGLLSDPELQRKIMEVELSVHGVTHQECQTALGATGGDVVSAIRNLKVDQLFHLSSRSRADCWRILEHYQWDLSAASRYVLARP

[1] = read-out: Niraparib (MK-4827) / %Ctrl @ 10000nM
[2] = read-out: Rucaparib / %Ctrl @ 10000nM, binding competition, % of control
[3] = read-out: Olaparib / %Ctrl @ 10000nM
[4] = read-out: Talazoparib (BMN 673) / %Ctrl @ 10000nM

Sequence of ERBB4 (Q15303 whole entry): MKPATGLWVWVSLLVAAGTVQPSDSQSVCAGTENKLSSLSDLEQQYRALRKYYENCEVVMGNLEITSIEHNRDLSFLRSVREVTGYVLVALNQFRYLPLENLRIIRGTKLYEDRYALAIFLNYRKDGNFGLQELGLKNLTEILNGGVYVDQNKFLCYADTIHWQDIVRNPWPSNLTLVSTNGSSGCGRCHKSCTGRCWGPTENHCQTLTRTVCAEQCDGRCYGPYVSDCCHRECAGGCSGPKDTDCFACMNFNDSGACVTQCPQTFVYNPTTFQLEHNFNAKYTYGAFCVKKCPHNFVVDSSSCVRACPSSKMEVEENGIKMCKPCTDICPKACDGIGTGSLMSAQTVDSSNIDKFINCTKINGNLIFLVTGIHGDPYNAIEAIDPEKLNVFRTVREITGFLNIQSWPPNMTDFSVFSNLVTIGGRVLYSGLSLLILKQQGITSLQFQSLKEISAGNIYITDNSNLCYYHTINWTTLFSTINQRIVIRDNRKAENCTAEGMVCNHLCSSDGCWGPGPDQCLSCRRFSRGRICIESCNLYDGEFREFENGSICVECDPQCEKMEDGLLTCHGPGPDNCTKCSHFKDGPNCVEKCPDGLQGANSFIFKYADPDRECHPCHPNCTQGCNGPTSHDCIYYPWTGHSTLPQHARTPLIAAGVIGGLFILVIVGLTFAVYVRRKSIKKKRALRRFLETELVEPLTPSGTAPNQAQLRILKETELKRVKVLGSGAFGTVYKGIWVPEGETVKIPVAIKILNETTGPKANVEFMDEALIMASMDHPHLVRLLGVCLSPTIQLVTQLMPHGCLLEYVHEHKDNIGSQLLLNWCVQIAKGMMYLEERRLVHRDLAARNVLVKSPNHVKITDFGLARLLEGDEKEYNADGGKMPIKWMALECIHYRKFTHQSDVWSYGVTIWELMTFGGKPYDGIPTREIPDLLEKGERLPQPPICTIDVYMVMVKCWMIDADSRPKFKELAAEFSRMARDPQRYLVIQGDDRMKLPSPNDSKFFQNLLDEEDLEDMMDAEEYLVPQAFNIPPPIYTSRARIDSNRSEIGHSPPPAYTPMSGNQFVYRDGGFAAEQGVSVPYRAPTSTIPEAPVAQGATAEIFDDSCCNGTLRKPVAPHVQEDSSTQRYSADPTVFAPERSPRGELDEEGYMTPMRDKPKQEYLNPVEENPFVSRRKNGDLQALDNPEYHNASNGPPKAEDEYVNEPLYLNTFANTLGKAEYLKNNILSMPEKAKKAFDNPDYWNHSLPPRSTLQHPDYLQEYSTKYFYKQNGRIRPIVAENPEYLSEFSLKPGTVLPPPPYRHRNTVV
Sequence of PIK3C2B (O00750 whole entry): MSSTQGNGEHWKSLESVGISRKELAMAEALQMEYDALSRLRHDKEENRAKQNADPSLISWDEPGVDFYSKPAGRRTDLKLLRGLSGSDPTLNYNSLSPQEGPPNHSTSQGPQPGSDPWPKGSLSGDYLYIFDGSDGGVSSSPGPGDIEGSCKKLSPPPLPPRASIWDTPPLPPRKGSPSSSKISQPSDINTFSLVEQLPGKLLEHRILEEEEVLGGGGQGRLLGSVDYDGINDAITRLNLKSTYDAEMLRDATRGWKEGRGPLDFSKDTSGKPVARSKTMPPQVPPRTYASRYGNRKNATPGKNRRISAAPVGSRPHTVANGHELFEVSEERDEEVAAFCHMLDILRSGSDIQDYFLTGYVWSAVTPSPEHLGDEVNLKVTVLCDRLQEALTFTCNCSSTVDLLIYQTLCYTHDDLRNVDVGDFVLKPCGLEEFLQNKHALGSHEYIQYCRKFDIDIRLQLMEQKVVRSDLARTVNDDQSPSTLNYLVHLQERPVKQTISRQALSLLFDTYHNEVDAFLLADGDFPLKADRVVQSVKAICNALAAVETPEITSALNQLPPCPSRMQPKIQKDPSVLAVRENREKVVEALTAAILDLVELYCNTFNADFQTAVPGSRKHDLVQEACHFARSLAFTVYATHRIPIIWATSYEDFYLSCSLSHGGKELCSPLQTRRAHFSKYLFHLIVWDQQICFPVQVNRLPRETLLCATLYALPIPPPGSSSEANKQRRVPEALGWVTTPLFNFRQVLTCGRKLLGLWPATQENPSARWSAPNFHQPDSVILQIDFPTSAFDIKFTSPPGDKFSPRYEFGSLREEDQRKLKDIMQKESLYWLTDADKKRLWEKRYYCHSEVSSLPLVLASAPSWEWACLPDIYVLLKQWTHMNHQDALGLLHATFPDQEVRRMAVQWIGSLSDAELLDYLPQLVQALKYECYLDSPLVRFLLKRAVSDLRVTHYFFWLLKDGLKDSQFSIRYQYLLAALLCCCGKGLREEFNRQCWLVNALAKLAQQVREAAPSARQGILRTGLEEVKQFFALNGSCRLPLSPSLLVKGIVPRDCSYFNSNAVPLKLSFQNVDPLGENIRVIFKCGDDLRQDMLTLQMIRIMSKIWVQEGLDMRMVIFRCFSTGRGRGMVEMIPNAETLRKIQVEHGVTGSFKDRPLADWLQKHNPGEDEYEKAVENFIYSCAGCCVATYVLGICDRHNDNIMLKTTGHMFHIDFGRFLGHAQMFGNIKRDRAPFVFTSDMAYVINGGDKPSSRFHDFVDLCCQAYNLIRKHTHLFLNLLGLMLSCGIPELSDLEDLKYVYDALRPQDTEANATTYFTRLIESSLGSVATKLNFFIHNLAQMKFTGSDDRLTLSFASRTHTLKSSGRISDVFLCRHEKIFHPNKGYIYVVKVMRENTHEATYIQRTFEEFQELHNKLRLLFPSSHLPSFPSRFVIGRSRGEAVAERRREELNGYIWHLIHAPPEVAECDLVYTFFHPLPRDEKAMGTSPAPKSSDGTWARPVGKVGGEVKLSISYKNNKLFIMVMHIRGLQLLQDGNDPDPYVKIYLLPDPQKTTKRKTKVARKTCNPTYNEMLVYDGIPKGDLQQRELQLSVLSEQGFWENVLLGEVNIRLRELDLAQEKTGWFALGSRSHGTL
Sequence of CAMK2A (Q9UQM7 whole entry): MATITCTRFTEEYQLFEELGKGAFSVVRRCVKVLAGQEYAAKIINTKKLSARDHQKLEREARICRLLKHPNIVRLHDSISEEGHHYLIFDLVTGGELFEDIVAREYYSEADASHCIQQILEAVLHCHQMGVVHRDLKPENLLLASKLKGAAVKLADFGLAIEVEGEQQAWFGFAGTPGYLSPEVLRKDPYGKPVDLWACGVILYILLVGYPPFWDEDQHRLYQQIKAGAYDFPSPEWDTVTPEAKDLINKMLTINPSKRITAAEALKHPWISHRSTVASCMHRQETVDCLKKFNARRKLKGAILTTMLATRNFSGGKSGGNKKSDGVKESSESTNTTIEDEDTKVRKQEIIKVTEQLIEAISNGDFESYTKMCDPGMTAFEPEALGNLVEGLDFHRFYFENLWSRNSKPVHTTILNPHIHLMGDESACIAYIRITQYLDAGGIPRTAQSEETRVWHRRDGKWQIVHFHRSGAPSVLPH
Sequence of CSNK1D (P48730 whole entry): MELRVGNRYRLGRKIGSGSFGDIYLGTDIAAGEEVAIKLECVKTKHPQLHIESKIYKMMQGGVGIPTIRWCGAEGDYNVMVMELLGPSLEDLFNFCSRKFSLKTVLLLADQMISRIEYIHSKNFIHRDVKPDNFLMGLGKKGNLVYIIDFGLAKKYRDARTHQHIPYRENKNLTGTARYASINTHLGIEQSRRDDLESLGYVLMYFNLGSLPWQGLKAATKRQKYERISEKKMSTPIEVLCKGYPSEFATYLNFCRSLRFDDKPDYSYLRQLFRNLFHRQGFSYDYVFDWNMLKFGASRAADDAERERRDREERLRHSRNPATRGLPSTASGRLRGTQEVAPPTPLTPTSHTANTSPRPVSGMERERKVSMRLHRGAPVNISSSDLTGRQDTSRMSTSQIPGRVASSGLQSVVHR
T2 sequence (Q99558 whole entry): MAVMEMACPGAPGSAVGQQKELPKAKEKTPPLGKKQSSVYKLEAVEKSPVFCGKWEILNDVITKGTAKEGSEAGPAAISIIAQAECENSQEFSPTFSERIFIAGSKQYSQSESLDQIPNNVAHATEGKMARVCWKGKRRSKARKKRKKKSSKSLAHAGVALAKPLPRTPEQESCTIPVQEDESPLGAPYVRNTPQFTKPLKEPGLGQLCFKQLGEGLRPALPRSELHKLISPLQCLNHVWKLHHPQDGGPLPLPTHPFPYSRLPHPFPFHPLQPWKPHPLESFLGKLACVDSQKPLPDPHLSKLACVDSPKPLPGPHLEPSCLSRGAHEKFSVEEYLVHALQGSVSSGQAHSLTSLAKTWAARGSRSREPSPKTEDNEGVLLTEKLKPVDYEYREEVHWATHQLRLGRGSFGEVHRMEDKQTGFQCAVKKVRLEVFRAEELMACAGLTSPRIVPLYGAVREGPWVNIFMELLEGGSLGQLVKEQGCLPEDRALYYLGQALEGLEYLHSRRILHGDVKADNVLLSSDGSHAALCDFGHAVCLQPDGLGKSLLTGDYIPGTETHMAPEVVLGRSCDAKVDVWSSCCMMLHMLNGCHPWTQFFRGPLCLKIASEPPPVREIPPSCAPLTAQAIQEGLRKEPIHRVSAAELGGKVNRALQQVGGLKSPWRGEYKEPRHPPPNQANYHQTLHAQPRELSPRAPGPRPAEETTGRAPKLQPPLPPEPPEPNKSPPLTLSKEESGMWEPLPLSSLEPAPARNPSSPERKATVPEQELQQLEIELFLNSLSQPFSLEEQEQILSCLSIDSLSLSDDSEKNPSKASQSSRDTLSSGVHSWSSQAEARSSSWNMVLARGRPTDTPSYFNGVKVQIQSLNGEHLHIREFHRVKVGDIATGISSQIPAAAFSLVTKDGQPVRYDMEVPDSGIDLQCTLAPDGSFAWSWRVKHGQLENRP

SMILES: NC(=O)c1cccc2cn(-c3ccc([C@@H]4CCCNC4)cc3)nc12 [Niraparib]
percent of control binding at 10 µM (CAMK2A; [1]): 78% | percent of control binding at 10 µM (CSNK1D; [1]): 57% | percent of control binding at 10 µM (DDR2; [1]): 90% | percent of control binding at 10 µM (ERBB4; [1]): 99% | percent of control binding at 10 µM (NIK; [1]): 100% | percent of control binding at 10 µM (PIK3C2B; [1]): 100% | percent of control binding at 10 µM (RIPK1; [1]): 91% | percent of control binding at 10 µM (TNK1; [1]): 56%

percent of control binding at 10 µM (CAMK2A; [2]): 79% | percent of control binding at 10 µM (CSNK1D; [2]): 63% | percent of control binding at 10 µM (DDR2; [2]): 89% | percent of control binding at 10 µM (ERBB4; [2]): 89% | percent of control binding at 10 µM (NIK; [2]): 74% | percent of control binding at 10 µM (PIK3C2B; [2]): 98% | percent of control binding at 10 µM (RIPK1; [2]): 99% | percent of control binding at 10 µM (TNK1; [2]): 91%
SMILES: CNCc1ccc(-c2[nH]c3cc(F)cc4c3c2CCNC4=O)cc1 [Rucaparib]

percent of control binding at 10 µM (CAMK2A; [3]): 96% | percent of control binding at 10 µM (CSNK1D; [3]): 96% | percent of control binding at 10 µM (DDR2; [3]): 92% | percent of control binding at 10 µM (ERBB4; [3]): 89% | percent of control binding at 10 µM (NIK; [3]): 89% | percent of control binding at 10 µM (PIK3C2B; [3]): 100% | percent of control binding at 10 µM (RIPK1; [3]): 100% | percent of control binding at 10 µM (TNK1; [3]): 95%
SMILES: O=C(c1cc(Cc2n[nH]c(=O)c3ccccc23)ccc1F)N1CCN(C(=O)C2CC2)CC1 [Olaparib]

percent of control binding at 10 µM (CAMK2A; [4]): 86% | percent of control binding at 10 µM (CSNK1D; [4]): 100% | percent of control binding at 10 µM (DDR2; [4]): 100% | percent of control binding at 10 µM (ERBB4; [4]): 91% | percent of control binding at 10 µM (NIK; [4]): 100% | percent of control binding at 10 µM (PIK3C2B; [4]): 67% | percent of control binding at 10 µM (RIPK1; [4]): 99% | percent of control binding at 10 µM (TNK1; [4]): 93%
SMILES: Cn1ncnc1[C@H]1c2n[nH]c(=O)c3cc(F)cc(c23)N[C@@H]1c1ccc(F)cc1 [Talazoparib]
